pIC50: −log10 of the molar value. Values after ≈ are worked out from the molar mass of the structure shown.
Columns and labels:
Rattus norvegicus = test: Anti-inflammatory activity in Wistar rat at 100 mg/kg assessed as protection against edema formation dosed 1 hr before carrageenan challenge measured at end of 3rd hr by plethysmography; format: functional
Trichomonas vaginalis = test: […] activity against Trichomonas vaginalis assessed as growth inhibition after 24 hrs; format: functional
[1] = Drug elimination in pig at 50 ppm; format: ADME, organism-based, Sus scrofa; conditions: in vivo, read-out: Drug excretion
Leishmania amazonensis = test: Antileishmanial activity against Leishmania amazonensis; format: functional, organism-based
[2] = tested on: Human immunodeficiency virus 1; test: Antiviral activity against Human immunodeficiency virus 1; format: functional, organism-based
[3] = tested on: Mycobacterium tuberculosis; test: Antimycobacterial activity against Mycobacterium tuberculosis H37Rv; format: functional
[4] = Cytotoxicity against human MT4 cells assessed as reduction cell viability after 5 days by MTT assay; format: cell-based
[5] = tested on: Human immunodeficiency virus 1; test: Antiviral activity against HIV1 3B infected in human MT4 cells assessed as inhibition of virus-induced cytopathic effect after 5 days by MTT assay; format: functional, organism-based; conditions: Human immunodeficiency virus 1, 3B, MT4, 120 h
[6] = Elimination half life in iv dosed dog; format: ADME, organism-based, Canis lupus familiaris; conditions: in vivo, read-out: beta t1/2 (converted)
[7] = Drug elimination in human patient kidney at starting dose of 9 mg/m2 administered as 5 or 20 mins intravenous infusion on days 1 to 5 every 21 days; format: ADME; conditions: urine, read-out: Drug excretion
[8] = Elimination half life in iv dosed rat; format: ADME, organism-based; conditions: in vivo, read-out: beta t1/2 (converted)
Leishmania infantum [9] = test: Leishmanicidal activity against Leishmania infantum; format: functional, organism-based
Plasmodium falciparum = test: Antimalarial activity against Plasmodium falciparum; format: functional, organism-based
T47D = test: Cytotoxicity against human T47D cells; format: functional, cell-based
MDA-MB-468 = test: Cytotoxicity against human MDA-MB-468 cells; format: functional, cell-based
[10] = Cytotoxicity against human HCT15 cells; format: functional, cell-based; conditions: HCT-15
[11] = Cytotoxicity against human SKOV3 cells; format: functional, cell-based; conditions: SK-OV-3
[12] = Primary phase half life in im dosed goat; format: ADME, organism-based, Capra hircus; conditions: in vivo, read-out: alphat1/2 (converted)
Candida = test: Antifungal activity against Candida assessed as growth inhibition; format: functional
Leishmania infantum [13] = test: Antileishmanial activity against Leishmania infantum; format: functional, organism-based
SRSF protein kinase 1 = SRSF protein kinase 1 (Homo sapiens, UniProt Q96SB4); test: Inhibition of SRPK1 kinase (unknown origin)
Chain of SRSF protein kinase 1 (Q96SB4 whole entry): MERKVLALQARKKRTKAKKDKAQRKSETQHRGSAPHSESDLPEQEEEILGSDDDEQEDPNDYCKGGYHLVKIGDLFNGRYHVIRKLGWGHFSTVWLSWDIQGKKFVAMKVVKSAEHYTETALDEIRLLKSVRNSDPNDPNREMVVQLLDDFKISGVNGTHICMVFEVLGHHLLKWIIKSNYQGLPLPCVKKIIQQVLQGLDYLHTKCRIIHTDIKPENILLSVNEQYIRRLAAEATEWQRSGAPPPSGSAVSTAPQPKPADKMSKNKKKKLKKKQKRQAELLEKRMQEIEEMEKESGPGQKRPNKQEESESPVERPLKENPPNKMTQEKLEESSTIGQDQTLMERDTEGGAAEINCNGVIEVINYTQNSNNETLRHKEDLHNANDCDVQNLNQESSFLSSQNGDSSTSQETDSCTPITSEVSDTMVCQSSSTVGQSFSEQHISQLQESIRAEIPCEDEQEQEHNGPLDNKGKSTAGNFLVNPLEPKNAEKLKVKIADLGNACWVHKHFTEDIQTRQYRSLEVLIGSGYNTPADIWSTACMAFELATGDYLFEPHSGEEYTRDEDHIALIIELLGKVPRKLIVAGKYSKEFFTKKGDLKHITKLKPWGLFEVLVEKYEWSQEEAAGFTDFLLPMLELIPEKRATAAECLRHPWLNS

Cc1nc2ccccc2nc1OCC(=O)N/N=C/c1ccc(Cl)cc1
inhibition in vivo at 100 mg/kg (Rattus norvegicus): 65.9%

Cc1c(NCc2ccc(Cl)c(Cl)c2)[n+]([O-])c2cc(F)c(F)cc2[n+]1[O-]
MIC (Trichomonas vaginalis): 6.25 µg/mL (≈ 16.2 µM)

COC(=O)N/N=C/c1c[n+]([O-])c2ccccc2[n+]1[O-] [CARBADOX]
dose excreted [1]: 90%

N#Cc1c(NC(=O)CCCCl)[n+]([O-])c2ccc(Cl)cc2[n+]1[O-]
pIC50 (Leishmania amazonensis): 6.15

Cc1cc2ncc(=O)n(CC(O)CO)c2cc1C (centres undefined)
EC50 [2]: 0.15 µg/mL (≈ 0.604 µM)

Cc1c(C(=O)Nc2ccccc2)[n+]([O-])c2cc(Cl)c(Cl)cc2[n+]1[O-]
IC90 [3]: < 6.25 µg/mL

c1ccc(-c2nc3ccccc3nc2-c2ccccc2)cc1
CC50 at 120 h [4]: 15.3 µg/mL (≈ 54.1 µM)
IC50 [5]: 3.84 µg/mL (≈ 13.6 µM)

C[C@@H](Oc1ccc(Oc2cnc3ccc(Cl)cc3n2)cc1)C(=O)O [R(+)XK469]
half-life [6]: 13.2 h
dose excreted [7]: 7%
half-life [8]: 13.5 h

C=CCCCOc1cnc2cc(C)c(C)cc2n1
EC50 [2]: 0.22 µg/mL (≈ 0.908 µM)

N#Cc1c(Nc2ccc(F)cc2)[n+]([O-])c2ccc(Cl)cc2[n+]1[O-]
IC90 [3]: < 6.25 µg/mL

N#Cc1c(NC(=O)N2CCN(c3ccc(C(F)(F)F)cc3)CC2)[n+]([O-])c2ccc(Cl)cc2[n+]1[O-]
pIC50 (Leishmania infantum [9]): 5.24

[O-][n+]1c(Cl)c(OC2CCCCC2)nc2ccc(F)cc21
pIC50 (Plasmodium falciparum): 5.39

CCCCCNCc1ccc2c(c1)C(=O)c1nccnc1C2=O
pIC50 (T47D): 7.10
pIC50 (MDA-MB-468): 6.70
pIC50 [10]: 7.30
pIC50 [11]: 6.40

CCCNC(=O)c1c(C)[n+]([O-])c2ccc(Cl)cc2[n+]1[O-]
IC90 [3]: < 0.19 µg/mL

CC(=O)c1c(C)[n+]([O-])c2ccccc2[n+]1[O-] [MEQUINDOX]
half-life [12]: 0.28 h

O=c1[nH]c2cc3cccnc3c(Cl)c2nc1CBr
MIC (Candida): 31.2 µg/mL (≈ 96.3 µM)

N#Cc1c(NC(=O)C2CCCCC2)[n+]([O-])c2ccc(Cl)cc2[n+]1[O-]
pIC50 (Leishmania infantum [13]): 5.60

O=C(O)c1ccc2cc3nc(-c4cccs4)c(-c4cccs4)nc3cc2c1
pIC50 (SRSF protein kinase 1): 7.40
